Series [1] in a line: pKa of the amino group (conjugated acid) of the amino compound used in the slurry. Particulars: water.

Description: Such value of the pKa can be measured by the potentiometric titration method. In the present specification, the pKa of the amino group is “pKa of conjugated acid of the amino group”.

A word on the pKa: it is the pH at which an ionisable group is half protonated. A higher pKa goes with a weaker acid or stronger base. `CCNC[C@H](O)[C@@H](O)[C@H](O)[C@H](O)CO` [N-ethyl glucamine, N-ethylglucamine]: in series [1], the pKa is 9.5. Same read-out and setting: under `N[C@H]1C(O)O[C@H](CO)[C@@H](O)[C@@H]1O` (stereo partly shown) [glucosamine] stands 7.6. Consider `CNC[C@H](O)[C@@H](O)[C@H](O)[C@H](O)CO` [N-methyl glucamine, N-methylglucamine], for which the pKa in “physchem” came out at […]. Take `CCCCNCCO` [2-(butylamino)ethanol]: in series [1], the pKa worked out at 10.

(Values after US9437446B2, “Slurry for chemical mechanical polishing and chemical mechanical polishing method” (KURARAY CO., LTD., priority 2012, dated 2016).)
